Calls of active or inactive are those of the source.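 How the source made its calls: active means compounds whose mean EC50 for raising GC-A cGMP output is under 66 µM; inactive means the rest.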
Each compound was assayed against Atrial natriuretic peptide receptor 1 (Homo sapiens) (UniProt P16066) (assay: GC-A receptor activator analogs potency, SAR follow-up, HEK293 GC-A cells, cGMP TR-FRET, powder samples (AID 1671465)). Details: EC30 ANP.
Sequence of Atrial natriuretic peptide receptor 1 (Homo sapiens) (P16066 whole entry, looked up): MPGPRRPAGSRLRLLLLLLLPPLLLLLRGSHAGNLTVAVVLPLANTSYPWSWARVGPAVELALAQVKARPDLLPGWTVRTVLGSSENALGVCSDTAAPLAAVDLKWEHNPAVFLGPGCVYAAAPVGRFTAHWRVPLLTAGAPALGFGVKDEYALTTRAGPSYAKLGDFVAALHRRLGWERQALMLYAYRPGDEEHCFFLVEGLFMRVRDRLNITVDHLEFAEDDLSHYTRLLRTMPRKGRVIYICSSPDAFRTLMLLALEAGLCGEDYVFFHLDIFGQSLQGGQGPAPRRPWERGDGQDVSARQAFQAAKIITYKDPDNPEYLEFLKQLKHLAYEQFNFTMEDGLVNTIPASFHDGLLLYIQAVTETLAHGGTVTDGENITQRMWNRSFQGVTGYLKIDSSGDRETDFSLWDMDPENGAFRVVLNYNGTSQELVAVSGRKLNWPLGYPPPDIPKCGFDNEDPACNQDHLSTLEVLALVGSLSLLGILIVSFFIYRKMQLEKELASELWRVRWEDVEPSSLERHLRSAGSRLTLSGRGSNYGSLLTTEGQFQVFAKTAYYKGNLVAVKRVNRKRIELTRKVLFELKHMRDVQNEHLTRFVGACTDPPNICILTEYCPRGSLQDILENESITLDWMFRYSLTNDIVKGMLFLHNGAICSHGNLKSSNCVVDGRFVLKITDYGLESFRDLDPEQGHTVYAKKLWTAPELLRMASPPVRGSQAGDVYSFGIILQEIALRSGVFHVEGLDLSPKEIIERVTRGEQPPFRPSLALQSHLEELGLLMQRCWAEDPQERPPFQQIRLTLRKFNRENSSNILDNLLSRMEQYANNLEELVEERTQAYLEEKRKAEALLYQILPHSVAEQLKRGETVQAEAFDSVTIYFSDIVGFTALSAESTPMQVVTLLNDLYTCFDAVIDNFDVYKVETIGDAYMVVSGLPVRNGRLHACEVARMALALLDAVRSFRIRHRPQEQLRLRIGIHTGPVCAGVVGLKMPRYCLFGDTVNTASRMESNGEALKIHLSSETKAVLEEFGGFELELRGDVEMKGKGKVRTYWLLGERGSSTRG

Structure (SMILES) | EC50
O=C(Nc1nc2c(F)cc(F)cc2s1)C1CCCCC1 | 2730 nM
O=C(Nc1nc2c(F)cc(F)cc2s1)C1CCCN(C(=O)c2ccccc2)C1 (stereo unspecified) | 3360 nM
CC(C)(C)C(=O)N1CCC(C(=O)Nc2nc3c(Cl)cccc3s2)CC1 | 2000 nM
CC(C)(C)C(=O)N1CCCC(C(=O)Nc2nc3c(F)cc(F)cc3s2)C1 (stereo unspecified) | 5070 nM
CC(C)(C)CC(=O)N1CCCC(C(=O)Nc2nc3c(F)cc(F)cc3s2)C1 (stereo unspecified) | 3570 nM
O=C(Nc1nc2c(F)cc(F)cc2s1)C1CCCN(Cc2ccccc2)C1 (stereo unspecified) | 2410 nM
CC(=O)Nc1nc2c(F)cc(F)cc2s1 | 23900 nM
O=C(Nc1nc2c(F)cc(F)cc2s1)C1CCCN(C(=O)C2CC2)C1 (stereo unspecified) | 1970 nM
CC(C)(C)OC(=O)N1CCCC(C(=O)Nc2nc3c(F)cc(F)cc3s2)C1 (stereo unspecified) | 8260 nM
CC(C)(C)C(=O)N1CCC(C(=O)Nc2nc3c(F)cc(F)cc3s2)C1 (stereo unspecified) | 2090 nM
CC(C)(C)C(=O)N1CCC(C(=O)Nc2nc3c(Cl)ccc(Cl)c3s2)CC1 | > 66700 nM (inactive)
O=C(Nc1nc2c(F)cc(F)cc2s1)C1CCCN(C(=O)Cc2ccccc2)C1 (stereo unspecified) | 2020 nM

Further lines, results first:

EC50 | Structure (SMILES)
1810 nM | O=C(Nc1nc2c(F)cc(F)cc2s1)C1CCCN(C(=O)C2CCC2)C1 (stereo unspecified)
1150 nM | CC(=O)N1CCC(C(=O)Nc2nc3c(F)cc(F)cc3s2)CC1
1230 nM | CN1CCCC(C(=O)Nc2nc3c(F)cc(F)cc3s2)C1 (stereo unspecified)
1050 nM | O=C(Nc1nc2c(F)cc(F)cc2s1)C1CCCNC1 (stereo unspecified)
840 nM | CC(C)N1CCC(C(=O)Nc2nc3c(F)cc(F)cc3s2)CC1
1650 nM | CC(=O)N1CCCC(C(=O)Nc2nc3c(F)cc(F)cc3s2)C1 (stereo unspecified)
393 nM | CN(C)CCN1CCCC(C(=O)Nc2nc3c(F)cc(F)cc3s2)C1 (stereo unspecified)
1750 nM | CS(=O)(=O)N1CCCC(C(=O)Nc2nc3c(F)cc(F)cc3s2)C1 (stereo unspecified)
1720 nM | O=C(Nc1nc2c(F)cc(F)cc2s1)C1CCN(C(=O)C2CCC2)CC1
